Assay results reported in PubChem BioAssay (NCI).
Where “and” joins values, the source holds several entries; their conditions need not be identical. Identical values can stand only once.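 Protocol summary: plate cells (96-well), add compound at 5 concentrations, incubate 48 h, interpolate endpoints linearly. GI50 = concentration required for 50% inhibition of growth. TGI is the concentration that stops growth completely.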

How the values were obtained:
Assay in all cases: NCI-60 cell line screen, 48 h
DU-145 prostate = tested on: DU-145 prostate
OVCAR-3 ovarian = tested on: OVCAR-3 ovarian
HOP-62 NSCLC = tested on: HOP-62 NSCLC
HL-60(TB) leukemia = tested on: HL-60(TB) leukemia
HCT-15 colon = tested on: HCT-15 colon
HOP-92 NSCLC = tested on: HOP-92 NSCLC
LOX IMVI melanoma = tested on: LOX IMVI melanoma
MDA-MB-435 = tested on: MDA-MB-435
ACHN renal = tested on: ACHN renal
SF-295 CNS = tested on: SF-295 CNS
NCI-H23 lung = tested on: NCI-H23 lung
NCI-H226 lung = tested on: NCI-H226 lung

Row | SMILES | TGI (DU-145 prostate) [µM] | TGI (OVCAR-3 ovarian) [µM] | TGI (HOP-62 NSCLC) [µM] | TGI (HL-60(TB) leukemia) [µM] | TGI (HCT-15 colon) [µM] | TGI (HOP-92 NSCLC) [µM] | TGI (LOX IMVI melanoma) [µM] | TGI (MDA-MB-435) [µM] | TGI (ACHN renal) [µM] | TGI (SF-295 CNS) [µM] | TGI (NCI-H23 lung) [µM] | TGI (NCI-H226 lung) [µM] | GI50 (HL-60(TB) leukemia)
1 | O=S(=O)(Nc1nc2ccccc2nc1Nc1ccc2ccccc2c1)c1ccccc1 | > 100 | 8.96 | 30.8 | 68.9 | > 57.5 | 51.3 | 48.8 | > 100 | > 100 | 47.3 | 41.3 | > 84.2 | –
2 | O=C(O)CCC(=O)c1ccc2c(c1)C(C(=O)O)CC2 (configuration not stated) | > 100 | > 100 | > 100 | > 100 | > 100 | > 100 | > 100 | > 100 | > 100 | > 100 | > 100 | > 100 | –
3 | O=C(c1nc2ccc([N+](=O)[O-])cc2[nH]c1=O)C(O)c1ccc2c(c1)OCO2 (configuration not stated) | > 100 | > 100 | > 100 | > 100 | > 100 | > 100 | > 100 | > 100 | > 100 | > 100 | > 100 | > 100 | –
4 | COc1ccc2nc(-c3ccccc3)cc(OCC(=O)O)c2c1 | > 100 | > 100 | > 100 | > 100 | > 100 | > 100 | > 100 | > 100 | > 100 | > 100 | > 100 | > 100 | –
5 | OC1(c2ccc(-c3ccccc3)cc2)c2ccccc2C2=NCCN21 (configuration not stated) | > 100 | 63.6 | 43.5 | > 100 | > 100 | > 100 | > 100 | > 100 | 43.9 | > 100 | 52.6 | 62 | –
6 | CC[C@@]1(O)C(=O)OCc2c1cc1n(c2=O)Cc2c-1nc1ccccc1c2/C=N\NC(=O)C1CCCN1 (some centres not stated) | > 100 | 43.5 | 2.16 | > 100 | > 61.9 | 21.2 | 2.67 | > 100 | 1.02 | 18.6 | 0.965 | 2.8 | –
7 | C=C(C(=O)O)[C@@H]1C[C@@H]2O[C@H]1[C@@H](O)[C@@H](C)CCCC(C)=CCC[C@@]2(C)O | > 100 | > 100 | > 100 | > 100 | > 100 | > 100 | > 100 | > 100 | > 100 | > 100 | > 100 | > 100 | 10.5 µM and 32.5 µM
8 | O=C1/C(=C\c2cccc(Oc3ccccc3)c2)SC(c2ccccc2)N1c1ccccc1 (configuration not stated) | > 100 | > 100 | > 100 | > 100 | > 100 | > 100 | > 100 | > 100 | > 100 | > 100 | > 100 | > 100 | –
9 | CC(=N\N)/C(C)=N/N=C(C)/C(C)=N/N | > 100 | > 100 | > 100 | > 100 | > 100 | > 100 | > 100 | > 100 | > 100 | > 100 | > 100 | > 100 | –
10 | CC(C)(C)OC(=O)NC1CC2(C=C(Br)C(=O)C(Br)=C2)OC1=O (configuration not stated) | 26.4 | 32.5 | 36.8 | 7.65 | 23 | 30.1 | 33.4 | 22.1 | 10.8 | 38.9 | 22 | 40.6 | –
11 | Cc1ccccc1OC(C)C(=O)NN1C(=O)CSC1c1ccc(Cl)cc1 (configuration not stated) | > 100 | > 93.6 | 51.2 | 47.5 | > 100 | > 100 | > 58.8 | > 100 | > 68.9 | > 61.3 | > 100 | > 82.6 | –
12 | NC(=O)N/N=C(/CC1C(=O)Oc2ccccc21)c1ccccc1O (configuration not stated) | > 100 | > 100 | > 100 | 51 | > 100 | > 100 | 41.5 | > 100 | > 100 | > 100 | > 100 | 82.5 | –
13 | Nc1nc(Cl)c(N)c(NCC2(CO)CC2)n1 | > 100 | > 100 | > 100 | > 100 | > 100 | > 100 | > 100 | > 100 | > 100 | > 100 | > 100 | > 100 | –
14 | O=C(O)CCS/C(=C\C(SCCC(=O)O)c1ccc(Cl)cc1)c1ccc(Cl)cc1 (configuration not stated) | > 100 | 49 | > 100 | > 100 | > 100 | > 100 | 63.1 | > 100 | > 100 | > 100 | > 100 | > 100 | –
15 | CC1(C)OC2[C@@H](CO[C@@]3([C@@H](O)CCO)OC(C)(C)O[C@@H]23)O1 (some centres not stated) | > 100 | > 100 | > 100 | > 100 | > 100 | > 100 | > 100 | > 100 | > 100 | > 100 | > 100 | > 100 | –
16 | CS(=O)(=O)OCCN(CCOS(C)(=O)=O)c1ccc(C=Nc2cccc(Cl)c2)cc1 | > 100 | 51.8 | > 100 | > 100 | 10 | > 92.7 | 15.2 | 30.3 | 0.651 | 28.9 | 10.6 | 11 | –
17 | Clc1ccc(C(c2ccccc2Cl)C(Cl)Cl)cc1 (configuration not stated) | 34.3 | 34.3 | 39.7 | 51.5 | 36.5 | 32.1 | 40.2 | 32 | 38.8 | 35.6 | 37.7 | 39.1 | –
18 | c1ccc2c(c1)c1c(n2CCOCCN2CCCC2)CCCC1 | 87.2 | > 100 | 28.9 | 30.4 | 31.2 | 86.9 | 33.9 | 33.8 | 42.1 | > 100 | 65.2 | 49.5 | –
19 | c1cc2c(cc1NC1=NCCO1)OCO2 | > 100 | > 100 | > 100 | > 100 | > 100 | > 100 | > 100 | > 100 | > 100 | > 100 | > 100 | > 100 | –
20 | O=[N+]([O-])c1ccc2c(c1)N([O-])C1(CCCCC1)[N+]2=O | 33.9 | 51 | 31 | > 100 | 39.4 | 29.1 | 42.2 | 30.9 | 33.8 | 34 | 66.3 | 37.4 | –
21 | Cc1cc2/c(=C\c3ccc(N(C)C)cc3)c3ccccc3n2[n+]1C | 4.16 | 2.63 | 8.45 | 6.44 | 34.7 | 3.52 | 2.59 | 1.84 | 10 | 12.8 | 3.23 | 5.87 | –
22 | COc1ccc(-n2c(N)c(C#N)[nH]c2=O)cc1 | > 10 | > 10 | > 10 | > 10 | > 10 | > 10 | 3.98 | > 10 | > 10 | 7.91 | > 10 | > 10 | –
23 | CCN(CC)CCCNc1ccc2nc(C)n3c4ccc(O)cc4c(=O)c1c23 | 19.7 | 21.6 | 19.1 | > 21.1 | 15.6 | 11.4 | 3.71 | 22 | 15.2 | 19.6 | 15.8 | 21.4 | –
